Tests used:
α-amylase = biological target: T1, α-amylase (Sus scrofa, UniProt P00690); test: α-amylase inhibition (anti-diabetic); format: biochemical; conditions: at 100 µg/mL; mean ± SE, n = 3
T1 sequence (P00690 16-511): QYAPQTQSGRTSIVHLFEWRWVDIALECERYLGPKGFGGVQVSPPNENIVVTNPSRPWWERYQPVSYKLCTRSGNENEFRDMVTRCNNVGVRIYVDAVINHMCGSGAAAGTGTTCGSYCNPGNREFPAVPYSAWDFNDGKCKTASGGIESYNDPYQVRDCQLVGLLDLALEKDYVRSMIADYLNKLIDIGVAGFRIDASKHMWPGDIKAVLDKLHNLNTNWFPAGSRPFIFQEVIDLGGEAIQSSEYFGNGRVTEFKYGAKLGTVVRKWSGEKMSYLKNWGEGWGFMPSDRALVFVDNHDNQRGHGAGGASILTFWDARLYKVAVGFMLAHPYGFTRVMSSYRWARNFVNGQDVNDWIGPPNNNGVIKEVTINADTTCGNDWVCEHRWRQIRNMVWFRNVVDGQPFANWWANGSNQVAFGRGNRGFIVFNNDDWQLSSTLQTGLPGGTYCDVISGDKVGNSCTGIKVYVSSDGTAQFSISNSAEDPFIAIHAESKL
Protocol: 3.3. Anti-diabetic activity […]
tetrahydrate in 8.0 mL of 2 M NaOH and 20 mL of 96 mM of DNSA solution). The […]
(§1) The absorbance was measured at 540 nm using a UV-Visible spectrophotometer. The IC50 of each tested sample was calculated by plotting a curve using a series of sample concentrations against the percent of α-amylase inhibition.
(§2) The inhibition percentage (%) of the α-glucosidase enzyme was determined using the […]
(§3) standard drug. Five μL of the α-glucosidase solution (10 units mL−1, 0.1moll−1 potassium phosphate buffer, pH 6.8) was pre -mixed with 10 μL of the sample solution at different concentrations (in 10% DMSO) i n 620 μL of 0.1 moll−1 potassium […]
(§4) phosphate buffer (pH 6.8). […]
(§5) phenyl glucopyranoside (pNPG, 10 mmoll−1) as a substrate was added to the mixture […]
(§6) minutes, followed by the addition of 650 μL of 1 moll−1 Na2CO3 solution to terminate the reaction. The amount of released product (p-nitro phenol) was measured at 410 […]
activity. […] The IC50 of each tested sample was calculated by plotting a curve using a series of sample concentrations against the percent of α-glucosidase inhibition. […]
(§7) In this study, we assessed the inhibition percentage of the acetylcholinesterase (AChE) enzyme using Ellman's method with donepezil as the standard drug. […] After incubation, 5 µL of AChE at a concentration of 0.3 U/mL was added to start the reaction, and the absorbance […]

α-glucosidase = α-glucosidase (Saccharomyces cerevisiae, UniProt P53341); format: biochemical
α-glucosidase, sequence (P53341 whole entry): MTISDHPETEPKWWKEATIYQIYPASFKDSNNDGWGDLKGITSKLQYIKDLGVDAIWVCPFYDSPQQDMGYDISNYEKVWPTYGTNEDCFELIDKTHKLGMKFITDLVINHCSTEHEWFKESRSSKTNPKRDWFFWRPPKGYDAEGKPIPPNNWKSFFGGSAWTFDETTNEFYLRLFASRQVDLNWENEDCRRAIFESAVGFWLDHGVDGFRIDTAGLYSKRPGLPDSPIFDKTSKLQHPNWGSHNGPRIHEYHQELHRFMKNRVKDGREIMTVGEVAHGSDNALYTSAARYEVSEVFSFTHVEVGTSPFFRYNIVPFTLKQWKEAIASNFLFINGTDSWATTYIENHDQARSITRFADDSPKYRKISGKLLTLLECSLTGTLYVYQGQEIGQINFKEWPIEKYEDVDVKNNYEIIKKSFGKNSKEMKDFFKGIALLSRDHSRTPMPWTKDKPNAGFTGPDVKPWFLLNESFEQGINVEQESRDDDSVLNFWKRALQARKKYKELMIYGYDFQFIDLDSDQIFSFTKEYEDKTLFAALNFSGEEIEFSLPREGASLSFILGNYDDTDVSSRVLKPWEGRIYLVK
Protocol: as §1, §2, §3, §4, §5, §6
activity. The inhibition assay was performed in triplicate for all tests. The IC50 of each tested sample was calculated by plotting a curve using a series of sample concentrations against the percent of α-glucosidase inhibition.
3.4. Anti-Alzheimer's activity
as §7

Compound: C[C@H]1O[C@H](O[C@H]2[C@H](O)[C@@H](O)[C@@H](O[C@H]3[C@H](O)[C@@H](O)C(O)O[C@@H]3CO)O[C@@H]2CO)[C@H](O)[C@@H](O)[C@@H]1N[C@H]1C=C(CO)[C@@H](O)[C@H](O)[C@H]1O (some centres unmarked) [Acarbose]
- α-Amylase Inhib. (%) (α-amylase): 54.96 ± 0.10 Acarbose %
- α-Glucosidase Inhib. (%) (α-glucosidase): 44.71 ± 0.10 Acarbose %

From paper PMC11859031, “Assessment of the In Vitro Biological Activities of Schiff Base-Synthesized Copper Oxide Nanoparticles as an Anti-Diabetic, Anti-Alzheimer, and Anti-Cancer Agent” (Pharmaceutics, 2025)
